Data reported in patent US4402942A, “Oxytocin derivatives” (Ferring AB, priority 1980, dated 1983).

Tests used:
[1] = tested on: oxytocin induced uterine contractions; details: literature, studies on rats; cited from earlier work
isolated rat uterus = test: Uterotonic potency on isolated rat uterus with oxytocin as standard; format: cell-based; details: rat in vitro
Description: The known compounds 2-O-methyltyrosine-oxytocin and 2-O-ethyltyrosine-oxytocin and a representative compound according to the invention, viz. 1-deamino-(2-O-ethyltyrosine)-oxytocin, was examined with regard to uterotonic potency on isolated rat uterus with use of oxytocin as standard. The antagonistic properties of the compounds were also evaluated with the aid of said preparation, but also in vivo with use of oxytocin as agonist. Moreover, the inhibition of oxytocin effect on isolated human myometrium was examined.
Sprague Dawley rats (body weight approximately 250 g) in natural estrous were selected by vaginal smears. […] Contractions were recorded isometrically at a resting tension of 1.5 g using Grass force transducers (Ft. 03). Antagonistic potency of the analogues was calculated as pA2 values (Rudinger, J. & Krejci, I. Experientia 18, (1962), 585-588). pA2 is a measure of the inhibitory property of the peptide and was defined by Schild (Schild, H. O., British Journal of Pharmacology, 2, (1947), 189-206) as the negative logarithm of the molar concentration of an antagonist which reduces the effect of a dose of agonist to that of half the dose.

[2] = tested on: uterine contractions caused by infusion of oxytocin; test: Rat in vivo uterine contractions under oxytocin infusion; details: for complete block of the uterine contraction pattern (oxytocin initiated and spontaneous): dose of 2 μg; for inhibition of the increase of strength of uterine contractions caused by oxytocin infusion: oxytocin 0.05 μg/min/100 g body weight
Description: Sprague Dawley rats (250 g) in natural estrous were anaesthetized with Inactin (0.5 mg/100 g body weight i.p.). Myometrial activity was recorded by means of a catheter fixed in the uterine cavity and filled with modified Locke's solution. The catheter was connected to a Statham P23d transducer and contractions were recorded on a Grass polygraph (model 7D). Oxytocin was infused intravenously (0.05 μg/min/100 g body weight). When a regular contraction pattern had been obtained the antagonist (0.8-8.0 μg/100 g body weight) was administered intravenously in a volume of 0.2 ml. The recorded curve was integrated over 10 minute intervals immediately before and after injection of the antagonist.

[3] = tested on: rat uterus preparations stimulated with oxytocin; test: Antagonistic activity (pA2) on rat uterus preparations in vitro stimulated with oxytocin; format: cell-based; details: oxytocin as agonist
Description: Sprague Dawley rats (body weight approximately 250 g) in natural estrous were selected by vaginal smears. An approximately 20 mm long segment was cut from the middle of a uterine horn and mounted in an organ bath containing 10 ml of a modified Locke's solution of the following composition (mM:NaCl 153, KCl 5.63, CaCl2 0.541, NaHCO3 5.95 and glucose 2.78). The solution was gassed with 5% CO2 in oxygen at 30° C. The uterine contractions were allowed to stabilize for 30 minutes. Contractions were recorded isometrically at a resting tension of 1.5 g using Grass force transducers (Ft. 03). Antagonistic potency of the analogues was calculated as pA2 values (Rudinger, J. & Krejci, I. Experientia 18, (1962), 585-588). pA2 is a measure of the inhibitory property of the peptide and was defined by Schild (Schild, H. O., British Journal of Pharmacology, 2, (1947), 189-206) as the negative logarithm of the molar concentration of an antagonist which reduces the effect of a dose of agonist to that of half the dose.

[4] = tested on: spontaneous uterine function; details: Swedish patent 7713/70; cited from earlier work
[5] = tested on: isolated human myometrium (pregnant), oxytocin induced contractions; test: Inhibition of oxytocin induced contractions of isolated uterine tissue from pregnant women; format: cell-based; details: in vitro
Description: From 17 patients undergoing caesarean section (week 37-40) a transverse segment of uterine tissue was excised from the isthmic part of the uterus. Tissue pieces were also excised from the ventral side of the uterus of 21 non-pregnant women in fertile age undergoing hysterectomy. The tissue pieces were immediately placed in Krebs-Ringer solution (mM: NaCl 118, KCl 4.6, CaCl2 2.5, MgSO4 1.15, NaHCO3 24.9, KH2 PO4 1.15 and glucose 5.5) at 0° C. and used within two hours after the operation. Segments pieces 25×3×3 mm large were mounted in an organ bath containing 10 ml Krebs-Ringer solution at 37° C. and gassed with 5% CO2 in oxygen. After an adaptation period of 30 minutes contractions were isometrically recorded at a resting tension of 1.25 g. In experiments involving pregnant women use was made of oxytocin (0.013-1.3 μg/ml) as an agonist. Lysinevasopressin (0.07-1.3 μg/ml) was used as an agonist where non-pregnant tissue was tested. A suitable dose of agonist was selected, which gave an effect corresponding to approximately 40% of the maximum effect. The antagonist was used in a concentration of 0.33-1.32 μg/ml. […] The inhibitory effect of the antagonist was measured by planimetry, for 15 minutes after the addition of the peptide, of the total surface of the curve recorded. Inhibition was expressed as a percentage of the effect obtained with the agonist alone.

[6] = Blood pressure after intravenous dose; format: in vivo; details: 30 μg intravenously

Molecule	effect on oxytocin induced uterine contractions [1]	uterotonic potency (isolated rat uterus)	complete block of the uterine contraction pattern (oxytocin initiated and spontaneous) [2]	inhibition of the increase of strength of uterine contractions caused by oxytocin infusion [2]	pA2 (average ± average error) [3]	effect on the spontaneous uterine function [4]	inhibition of oxytocin induced contractions [5]	effect on the blood pressure [6]
[1-deaminopenicillamine,2-O-methyltyrosine]oxytocin	antagonistic effect	–	–	–	–	–	–	–
2-O-methyltyrosine-oxytocin	antagonistic effect	1-2 IU/mg	lack this ability	dose dependent reversible inhibition	6.68 ± 0.12	–	–	–
N^α -acetyl-2-O-methyltyrosine-oxytocin	antagonistic effect	–	–	–	–	no effect on the spontaneous uterine function	–	–
2-O-ethyltyrosine-oxytocin	antagonistic effect	1-2 IU/mg	lack this ability	dose dependent reversible inhibition	7.13 ± 0.09	–	a significant inhibition was obtained, which was however considerably lower than with use of the compound according to the invention	–
CCOc1ccc(C[C@@H]2NC(=O)CCSSC[C@@H](C(=O)N3CCC[C@H]3C(=O)N[C@@H](CC(C)C)C(=O)NCC(N)=O)NC(=O)[C@H](CC(N)=O)NC(=O)[C@H](CCC(N)=O)NC(=O)[C@H]([C@@H](C)CC)NC2=O)cc1 [1-deamino-2-O-ethyltyrosine-oxytocin]	–	–	–	–	7.19 ± 0.10	–	–	no effect at all on the blood pressure
